From patent US20230190902A1, “IDENTIFICATION OF HLA-RESTRICTED PRAME PEPTIDE EPITOPES, PRAME-SPECIFIC T CELLS SUITABLE FOR "OFF-THE-SHELF" TREATMENT OF CANCER EXPRESSING PRAME” (Children's National Medical Center, priority 2020, published 2023)
“Also recorded” adds a separate entry of the source.

Key:
PRAME-specific T-cells = assay: Epitope mapping by IFN-γ ELISpot (peptide mini-pools and single 15-mer peptides); assay type: cell-based, human; conditions: 10 μg/well
Method: (§1) PRAME Peptides. The PRAME peptide library consisting of 125 15-mer peptides overlapping by 11 amino acids and spanning the entire sequence of PRAME protein was designed to identify HLA class 1 and HLA class H-restricted epitopes (A&A Labs, San Diego, Calif.) 23 peptide pools comprising 10-12 peptides were prepared so that each 15-mer peptide was included in only two pools (FIGS. 7A and 7B). To determine minimal PRAME epitopes, additional 9-mer peptides overlapping by 8 amino acids spanning immunogenic 15-mer peptides were obtained from A&A Labs, San Diego, Calif. All peptides were reconstituted at 10 μg/μl in DMSO and stored at −80°C. until further use.
Epitope mapping. T-cell response to pools of peptide libraries and individual PRAME peptides were determined. by IFN-γ ELISpot assay. ELISpot assay was performed as previously described. 1×10^5 T-cells/well were plated alone, with actin (negative control), SEB (positive control), each peptide pool (1μg/well) and individual peptide (10 μg/well). IFN-γ spot-forming cells (SFC) were enumerated by Zellnet Consulting (Fort Lee, N.J.).
Responses that were at least 10 SFC/1×10^5 T-cells or greater than two-fold the background level of nonstimulated T-cells or T-cells stimulated with actin were considered positive responses.
In order to map the class 1-restricted responses, a mapping grid consisting of 23 mini-pools comprising 125 individual 15-mer peptides spanning the entire PRAME protein sequence to identify PRAME epitopes eliciting a response by ex-vivo expanded T-cells was used (FIG. 7A). IFN-γ production by PRAME- sensitized T-cells in response to stimulation with mini-pools was measured by ELISpot assay.
T-cell responses to single 15-mer peptides selected from the grid and their neighboring peptides were determined by IFN-γ ELISpot assay (FIG. 3B).

CD8+ T-cells [1] = assay: Intracellular IFN-γ and TNF-α cytokine staining, CD8+ T-cells; assay type: cell-based, human; conditions: 6 h stimulation, 200 ng/peptide/well
Method: (§2) T-cells were stimulated for 6 h with PRAME PepMix or individual PRAME peptides (200 ng/peptide/well) in the presence of anti-CD28 and CD49d antibodies (RD Biosciences, San Jose, Calif., USA) and Brefeldin A (Golgiplug, BD Biosciences). Controls (unstimulated T-cells, actin, SEE) were included in each experiment. Intracellular IFN-γ (BioLegend, San Diego, Calif.) and TNF-α (Miltenyi Biotec, Bergisch Gladbach, Germany) staining were performed on fixed and permeabilized cells (Cytofix/Cytoperm, BD Biosciences). Data was acquired with a CytoFLEX cytometer (Beckman Coulter, Brea, Calif.), and analyzed using FlowJo Flow Cytometry software (FlowJo LLC, Ashland, Oreg.).
(§3) HLA restriction of these peptides was evaluated with intracellular IFN-γ and TNF-α cytokine staining.

CD4+ T-cells = assay: Intracellular IFN-γ and TNF-α cytokine staining, CD4+ T-cells; assay type: cell-based, human; conditions: 6 h stimulation, 200 ng/peptide/well
Method: as §2, §3

CD8+ T-cells [2] = assay: Minimal 9-mer epitope determination by IFN-γ ELISpot; assay type: cell-based, human; conditions: 9-mers overlapping by 8 amino acids
Method: as §1
(§4) Minimal epitopes recognized by HLA I-restricted cell lines were determined by IFN-γ ELISpot assay. To confirm the restricted HLA allele, anti-human HLA class 1 B35 antigen monoclonal antibody was used in the ELISpot plate (MyBioSource, San Diego, Calif.).
The minimal 9-mer epitopes overlapping by 8 amino acids spanning the 15-mer peptides were determined by IFN-γ ELISpot.

HLA-B*35 = target: T1, HLA-B*35 (Homo sapiens, UniProt P01889, A329T/A93T/A95T/C349S/D201E/D98Y/E176V/E187L/E204Q/E69T/I218V/K202T/L119I/Q94N/R155S/R180L/S121R/S35A/S48A/T118I/V127L/V306I/V36M/Y140F/Y91F); assay: IFN-γ ELISpot with anti-HLA-B*35 antibody (HLA restriction); assay type: cell-based; conditions: versus T-cell product alone (FIG. 3G)
T1 construct: PRAME-specific T-cells were expanded from PBMCs obtained from twelve healthy donors; endogenous in cells; host or cells: ex vivo expanded PRAME-specific T-cell product from healthy donor PBMCs
Method: as §4
To confirm the HLA-B*35 restriction of FPEPEAAQP (SEQ ID NO: 6) further testing was performed using an anti-[…] antibody.

| Sequence | T-cell response to single 15-mer PRAME peptide, IFN-γ ELISpot (PRAME-specific T-cells; T-cell product of FIG. 3B/3C) | IFN-γ and TNF-α release by CD8+ T-cells (CD8+ T-cells [1]) | IFN-γ and TNF-α release by CD4+ T-cells (CD4+ T-cells) | T-cell response to single 15-mer PRAME peptide, IFN-γ ELISpot (PRAME-specific T-cells; T-cell product of FIG. 4B/4C) | IFN-γ secretion upon stimulation with 9-mer (minimal epitope) (CD8+ T-cells [2]) | specificity of T-cell product with anti-HLA-B*35 antibody (HLA-B*35) | specificity of T-cell product with anti-HLA-B*35 antibody (HLA-B*35; listed as FPEPEAAQPM) |
| --- | --- | --- | --- | --- | --- | --- | --- |
| SFPEPEAAQPMTKKR [compound 37] | immunogenic | released IFN-γ and TNF-α; also recorded: HLA-I-restricted | no specificity | – | – | – | – |
| RLVELAGQSLLKDEA [compound 7] | – | activated | activated | – | – | – | – |
| SPEKEEQYIAQFTSQ [compound 70] | – | – | – | recognition | – | – | – |
| EQPFIPVEVINDLFL [compound 43] | immunogenic | released IFN-γ and TNF-α; also recorded: HLA-I-restricted | no specificity | – | – | – | – |
| VEVLVDLFL | – | – | – | – | secreted IFN-γ; also recorded: minimal 9-mer peptides | – | – |
| ASIYSFPEPEAAQPM (ASLYSFPEPEAAQPM) [compound 36] | immunogenic | released IFN-γ and TNF-α; also recorded: HLA-I-restricted | no specificity | – | – | – | – |
| FPEPEAAQP | – | – | – | – | secreted IFN-γ; also recorded: minimal 9-mer peptides | decreased specificity | confirms HLA restriction |
| IPVEVINDLFLKEGA [compound 44] | immunogenic | released IFN-γ and TNF-α; also recorded: HLA-I-restricted | no specificity | – | – | – | – |
| EKVKRKKNVLRLCCK [compound 50] | – | no specificity | released IFN-γ and TNF-α; also recorded: release of IFN-γ and TNF-α | recognition | – | – | – |
| EEQYIAQFTSQFLSL [compound 71] | – | no specificity | released IFN-γ and TNF-α; also recorded: release of IFN-γ and TNF-α | recognition | – | – | – |
